Measurements as given in publication PMC11451635, “A Broad Spectrum Lasso Peptide Antibiotic Targeting the Bacterial Ribosome” (Research Square, 2024).
Values after ≈ are worked out from the molar mass of the structure shown. “Also recorded” adds a separate entry of the source. Where a SMILES comes first, the peptide text is derived from it. Bridges are numbered along the chain shown (N, C = ends).

Legend:
Bacillus subtilis 168 = type: cell-based
B. subtilis 168 = assay: Selection of spontaneous resistant mutants; type: cell-based, Bacillus subtilis; conditions: ~10^9 cfu on Mueller-Hinton agar, 37°C, 24–48 h
[1] = test system: Clostridium perfringens GC1584; conditions: column MHB; method: BHI + L-cysteine, hemin, vitamin K, anaerobic, 37 °C
E. coli BW25113 [2] = assay: Cell lysis assay (optical density); type: cell-based, Escherichia coli; conditions: exponential E. coli culture, OD600 over 6 h
Protocol: (§1) E. coli BW25113 was grown overnight in 5 ml MOPS minimal medium and diluted 1:100 in 3 ml of fresh medium in 14 ml culture tubes. Cells were grown for three to four hours to reach mid-exponential phase (OD600 0.4–0.6) and treated with 10xMIC of LAR (40 μg/ml) or colistin (2.5 to 5 μg/ml) in 1 ml culture at 37°C with agitation at 250 rpm. Cultures were sampled at various times, centrifuged at 10,000 xg for 3 min, and plated on MHA plates. The number of colony forming units (cfu) was determined after incubating plates for 20–24 hr at 37°C. A time-kill assay against A. baumannii C0286 was performed in MHB. For cell lysis assay, cultures were prepared as described above. Initial OD600 was adjusted to 0.15–0.2, and 98 μl of culture was added to a 96-well plate containing 2 μl of compound. The plates were incubated with orbital shaking at maximum speed with a Synergy Microplate Reader (Biotek), and OD600 was measured over 6 h. Experiments were performed in two to three biological replicates. For colistin in cell lysis assay, clumping of cells was observed after ≈2h, leading to a false increase in OD; therefore, data for colistin was not plotted after this period. The plate was manually mixed on a vortex, and the turbidity of colistin-treated wells was confirmed.

[3] = test system: E. coli BW25113 ΔtolCΔbamB expressing various resistance genes; assay: Cross-resistance with resistance mechanisms; conditions: mutations or enzymatic resistance mechanisms; Extended Data Fig. 10
[4] = test system: T. thermophilus 70S ribosome; assay: X-ray structure of ribosome complex; type: binding, Thermus thermophilus
human erythrocytes = assay: Haemolysis
A. baumannii C0286 = assay: Neutropenic mouse thigh-infection model
E. coli BW25113 [5] = assay: Time-dependent killing; type: cell-based, Escherichia coli; conditions: 10xMIC (40 μg/ml), MOPS minimal medium, 37°C
Protocol: as §1

E. coli = assay: MIC under anaerobic conditions; type: cell-based, Escherichia coli; conditions: anaerobic vs aerobic
Protocol: (§2) MICs were determined using broth microdilution method in cation-adjusted Mueller-Hinton Broth (MHBII, BD Difco) following standard procedures unless stated otherwise. Mycobacteria susceptibility was tested in Middlebrook 7H9 medium supplemented with 10% OADC Enrichment (oleic acid, bovine albumin, dextrose, and catalase) (BD Difco). The compounds (2 to 4 μl) were mixed with diluted cultures (5–7 × 10^5 cfu/mL) in MHB (196 to 198 μL) in 96-well round-bottom plates, and 2-fold serial dilutions were made. Plates were incubated at 37°C for 18–22 h, and OD600 readings were taken on Synergy Microplate Reader (Biotek). MIC was determined to be the lowest concentration of antibiotics with no visible growth. For Mycobacterial cultures, the plates were read after two to three days. Susceptibility was also assessed in MOPS minimal medium with 0.4% glucose (M2106 Teknova) and RPMI-1640 medium. Serum effects were tested in MHB with 10% or 50% fetal bovine serum (Invitrogen) or human serum (Heat Inactivated, from human male AB plasma; Sigma-Aldrich). For anaerobic conditions, E. coli was incubated in BD GasPak™ EZ pouch systems. To adjust the pH of the media, 1M NaOH or 1N HCl was used.

E. coli BW25113 [6] = assay: Selection of spontaneous resistant mutants; type: cell-based, Escherichia coli; conditions: ~10^9 cfu on MOPS minimal agar, 37°C, 24–48 h
[7] = test system: E. coli strain CA244 lacZ C1456T; assay: Miscoding assay (lacZ premature stop codon readthrough); conditions: MOPS agar, X-gal 80 μg/ml, IPTG 250 μM; 60.7 μg LAR spotted, ~18 h, 37°C
bacteria (Table 1) = assay: MIC in nutrient-limited media; type: cell-based; conditions: nutrient-limited media vs MHB
Protocol: as §2

## CC(C)[C@H](NC(=O)CNC(=O)[C@H](CCCNC(=N)N)NC(=O)CNC(=O)[C@H](Cc1ccccc1)NC(=O)[C@H](CCCCN)NC(=O)CNC(=O)[C@@H]1CC(=O)N[C@@H](CO)C(=O)N[C@@H](CCCCN)C(=O)N[C@@H](CCCCN)C(=O)N[C@@H](CO)C(=O)N[C@@H](CCCCN)C(=O)N2CCC[C@H]2C(=O)NCC(=O)N1)C(=O)N[C@@H](CCCCN)C(=O)N[C@@H](CCCNC(=N)N)C(=O)NCC(=O)O [LAR, lariocidin] (SKKSKPGDGKFGRGVKRG-OH; lactam N-8)
Bacillus subtilis 168
  MIC (text): 1 µg/mL (≈ 0.534 µM)
B. subtilis 168
  Frequency of resistant mutants: ~ 10^−8
[1]
  MIC: >256 µg/mL
E. coli BW25113 [2]
  Effect on culture optical density (lysis): did not cause a decrease in the optical density of the culture below the initial point
[3]
  Sensitivity to resistance mechanisms: unaffected by common resistance mechanisms; also recorded: mostly insensitive to mutations or enzymatic resistance mechanisms
[4]; 70S ribosome with mRNA and tRNAs, 250 μM antibiotic
  Ribosome binding (X-ray structure): binds to the small ribosomal subunit at a distinct site adjacent to the decoding center
[4]; Tth ribosome lacking mRNA and tRNAs (protein Y complex), 2.6 Å
  Ribosome binding without mRNA and tRNAs: the presence of A-site tRNA is not essential for LAR binding to the ribosome
Human erythrocytes
  Hemolytic activity: did not display hemolytic activity
Human erythrocytes; 500 μg/ml, human erythrocytes in PBS pH 7.4, 1 h, 37°C, 540 nm, Triton X-100 = 100%
  Haemolysis: <1%
A. baumannii C0286; 50 mg kg^−1 i.p. at 1, 4, 8 and 20 h post-infection, 24 h, vs vehicle, n = 8 treated
  Reduction in bacterial burden, blood: 2 orders of magnitude
A. baumannii C0286; 50 mg kg^−1 i.p. at 1, 4, 8 and 20 h post-infection, 24 h, vs vehicle, n = 15 treated
  Reduction in bacterial burden, spleen: 2 orders of magnitude
A. baumannii C0286; 50 mg kg^−1 i.p. at 1, 4, 8 and 20 h post-infection, 24 h, vs vehicle, n = 30 treated
  Reduction in bacterial burden, thigh: 2 orders of magnitude
A. baumannii C0286; mouse model of A. baumannii infection
  In vivo activity: potent in vivo activity
A. baumannii C0286; over 48 h post-infection, 50 mg kg^−1 i.p. x4
  Survival: 100%
A. baumannii C0286; vs control mice
  Appearance of treated mice: appeared much healthier than control mice
E. coli BW25113 [5]
  Viable cell count / bactericidal activity: dramatically reduced the viable cell count; also recorded: exhibits bactericidal activity
E. coli
  Increase in MIC under anaerobic conditions: 4-to-8 fold
E. coli BW25113 [6]
  Frequency of resistant mutants: ~ 10^−8
[7]
  Miscoding / premature stop codon readthrough: induces miscoding; also recorded: induces premature stop codon readthrough
Bacteria (Table 1)
  MIC reduction in nutrient-limited media: ≤ 128 fold
